Patent US11352408B2, “Antitumor peptide having PD-1 signal sequence and utilization thereof” (TOAGOSEI CO.,LTD., priority 2017, dated 2022)
Read-outs that look alike come from different tables or passages of the source. Where a SMILES comes first, the peptide text is derived from it.

Columns and labels:
[1] = system: human non small cell lung cancer cell line (HCC827); experiment: Antitumor activity evaluation, cell viability by Cell Counting Kit-8 (WST-8); assay type: cell-based
Method: (§1) The cell viability (%) was determined as indicated hereinbelow.

in vitro = assay type: cell-based; settings: human
Method: (3) cultured normal human mammary epithelial cell line (MCF-12F):
DMEM/F12 medium (product from Wako Pure Chemical Industries, Ltd.) containing 20 ng/mL recombinant EGF, 10 μg/mL insulin, 0.5 μg/mL hydrocortisone and 10% FBS.
as §1

[2] = system: human breast adenocarcinoma cell line (MDA-MB-231); assay type: cell-based; settings: 48 h
Method: (§2) Some of the sample peptides synthesized in Test Example 1 were evaluated for antitumor activity on several types of cultured tumor cells.
(§3) Specifically, test tumor cells used were currently commercially available human non small cell lung cancer cell line (NCI-H2444), human non small cell lung cancer cell line (HCC827), human alveolar basal epithelial adenocarcinoma cell line (A549), human small cell lung cancer cell line (NCI-H446), human melanoma cell line (A2058) and human breast adenocarcinoma cell line (MDA-MB-231). As a comparison, a commercially available cultured normal human mammary epithelial cell line (MCF-12F) was used.
(§4) (2) human melanoma cell line (A2058) and human breast adenocarcinoma cell line (MDA-MB-231):
(§5) DMEM medium (product from Wako Pure Chemical Industries, Ltd.) containing 2 mM L-glutamine, 0.1 mM non-essential amino acids, 50 units/mL penicillin, 50 μg/mL streptomycin and 10% FBS; and
(§6) The above six cell lines were cultured in each of the media indicated above and the number of cells was adjusted to be approximately 5×10^3 per well in a 96-well plate. The amount of the medium was 100 μL per well.
(§7) The 96-well plate was placed in a CO2 incubator and pre-incubated under conditions of 37° C. and 5% CO2 for approximately one day (21 hours to 24 hours).
(§8) Thereafter, peptide-containing test media were respectively prepared for each concentration so that the concentration of any of the sample peptides to be evaluated was either 12.5 μM or 25 μM, and were supplied to wells (namely, wells after pre-incubation above) in which cells to be evaluated were cultured at 90 μL per well. The 96-well plate was placed back in the CO2 incubator and incubated under conditions of 37° C. and 5% CO2 for 48 hours.
(§9) The number (n) of test wells per each peptide concentration in the test section to which peptides were added was 3. Therefore, the values indicated in the result section in the table hereinbelow are averages of results obtained from 3 test wells. The cell viability (%) was determined as indicated hereinbelow.
(§10) After a 48-hour incubation, the medium in the wells was replaced by 100 μL fresh medium without peptide, and 10 μL of a reagent for cell proliferation measurement “Cell Counting Kit-8” (product from Dojindo Laboratories) containing “water-soluble tetrazolium salt (WST-8)” as a chromogenic reagent was added to each well. The 96-well plate was then placed back in the CO2 incubator and incubated under conditions of 37° C. and 5% CO2 for 1.5 hours to 2 hours.
(§11) After completion of the incubation, the cell culture medium to which the reagent was added was recovered and the cell viability (%) was evaluated by a colorimetric method in which the absorbance at a wavelength of 450 nm (the value corrected with the absorbance at a wavelength 650 nm: A450-A650) due to reduction of the tetrazolium salt was measured. Specifically, the cell viability (%) of each test cell line was calculated from the measured absorbance as a relative value to the measured value (measured absorbance) in the comparative test section in which the incubation over 48 hours as above was carried out only with a medium without peptide, that was regarded as 100% of the cell viability.

[3] = system: human melanoma cell line (A2058); assay type: cell-based; settings: 48 h
Method: as §2, §3, §4, §5, §6, §7, §8, §9, §10, §11

[4] = system: human small cell lung cancer cell line (NCI-H446); assay type: cell-based; settings: 48 h
Method: as §1

[5] = system: human non small cell lung cancer cell line (NCI-H2444); experiment: Antitumor activity evaluation, cell viability by Cell Counting Kit-8 (WST-8); assay type: cell-based
Method: as §1

[6] = system: tumor cells tested in the present Test Example; experiment: Evaluation test on antitumor activities of synthetic peptides, overall finding; assay type: cell-based, human; settings: compared to comparative samples 3 to 5
Method: as §1

[7] = system: human alveolar basal epithelial adenocarcinoma cell line (A549); settings: 48 hours, relative to medium without peptide = 100%
Method: as §2, §3
The above six cell lines were cultured in each of the media indicated above and the number of cells was adjusted to be approximately 5×10^3 per well in a 96-well plate. The amount of the medium was 100 μL per well. […]
as §8, with “The 96-well plate was placed back in the CO2 incubator and incubated under conditions of 37° C. and 5% CO2 for 48 hours.” left out
The number (n) of test wells per each peptide concentration in the test section to which peptides were added was 3. […] The cell viability (%) was determined as indicated hereinbelow. […]

SMILES | Cell viability (%) ([1]; human, 48 h, 12.5 µM) | Cell viability (%) ([1]; human, 48 h, 25 µM) | viability at 48 h, 12.5 µM (in vitro) [%] | viability at 48 h, 25 µM (in vitro) [%] | Cell viability (%) ([2]; 12.5 µM) | Cell viability (%) ([2]; 25 µM) | Cell viability (%) ([3]; 12.5 µM) | Cell viability (%) ([3]; 25 µM) | Cell viability (%) ([4]; 12.5 µM) | Cell viability (%) ([4]; 25 µM) | Cell viability (%) ([5]; human, 48 h, 12.5 µM) | Cell viability (%) ([5]; human, 48 h, 25 µM) | antitumor activity (inhibitory activity of proliferation of tumor cells) [6] | Cell viability (%) ([7]; test peptide concentration 12.5 μM) | Cell viability (%) ([7]; test peptide concentration 25.0 μM) | Cell viability (%) ([5]; NCI-H2444, test peptide concentration 12.5 μM, 48 hours, relative to medium without peptide = 100%) | Cell viability (%) ([5]; NCI-H2444, test peptide concentration 25.0 μM, 48 hours, relative to medium without peptide = 100%) | Cell viability (%) ([1]; HCC827, test peptide concentration 12.5 μM, 48 hours, relative to medium without peptide = 100%) | Cell viability (%) ([1]; HCC827, test peptide concentration 25.0 μM, 48 hours, relative to medium without peptide = 100%)
CC(C)C[C@H](NC(=O)[C@@H](NC(=O)[C@H](CCCNC(=N)N)NC(=O)[C@H](CCCCN)NC(=O)[C@@H](N)CCCCN)[C@@H](C)O)C(=O)N[C@@H](CCCNC(=N)N)C(=O)N[C@@H](CCCCN)C(=O)N[C@@H](CC(N)=O)C(=O)N[C@@H](CC(=O)O)C(=O)N[C@@H](CCCNC(=N)N)C(=O)N[C@@H](CCCCN)C(=O)N[C@@H](CCCCN)C(=O)N[C@@H](CCCNC(=N)N)C(N)=O [Sample 5, KKRTLRKNDRKKR-CONH2] (H-KKRTLRKNDRKKR-NH2; N-terminus assumed) | 106.7 | 106.5 | – | – | – | – | – | – | – | – | – | – | – | – | – | – | – | – | –
CC[C@H](C)[C@H](NC(=O)[C@H](CC(C)C)NC(=O)[C@H](CC(C)C)NC(=O)[C@H](CCSC)NC(=O)[C@H](CCC(N)=O)NC(=O)[C@H](CCC(N)=O)NC(=O)[C@H](CCC(N)=O)NC(=O)[C@@H](NC(=O)[C@@H](NC(=O)[C@@H](NC(=O)[C@@H]1CCCN1C(=O)[C@@H]1CCCN1C(=O)[C@H](Cc1c[nH]c2ccccc12)NC(=O)[C@H](Cc1c[nH]c2ccccc12)NC(=O)[C@H](Cc1c[nH]c2ccccc12)NC(=O)[C@@H]1CCCN1)C(C)C)C(C)C)C(C)C)C(=O)NCC(=O)N[C@@H](C)C(=O)N[C@@H](C)C(=O)N[C@@H](CCCNC(=N)N)C(=O)N[C@@H](CCCCN)C(=O)N[C@@H](CCCCN)C(=O)N[C@@H](CCCNC(=N)N)C(=O)N[C@H](C(=O)N[C@@H](CC(C)C)C(=O)N[C@@H](CCCNC(=N)N)C(=O)N[C@@H](CCCCN)C(=O)N[C@@H](CC(N)=O)C(=O)N[C@@H](CC(=O)O)C(=O)N[C@@H](CCCNC(=N)N)C(=O)N[C@@H](CCCCN)C(=O)N[C@@H](CCCCN)C(=O)N[C@@H](CCCNC(=N)N)C(N)=O)[C@@H](C)O [Sample 4] (H-PWWWPPVVVQQQMLLIGAARKKRTLRKNDRKKR-NH2; N-terminus assumed) | 110.9 | 102.6 | – | – | – | – | – | – | – | – | – | – | – | – | – | – | – | – | –
CC[C@H](C)[C@H](NC(=O)[C@H](CCCNC(=N)N)NC(=O)[C@@H](N)CCSC)C(=O)N[C@@H](Cc1ccccc1)C(=O)N[C@@H](C)C(=O)N[C@H](C(=O)N[C@@H](Cc1ccccc1)C(=O)N[C@H](C(=O)N[C@@H](Cc1ccccc1)C(=O)N[C@@H](CCSC)C(=O)N[C@H](C(=O)N[C@@H](Cc1ccc(O)cc1)C(=O)N[C@@H](Cc1c[nH]c2ccccc12)C(=O)N[C@@H](Cc1c[nH]cn1)C(=O)N[C@@H](CC(C)C)C(=O)N[C@@H](CC(C)C)C(=O)N[C@@H](CC(N)=O)C(=O)N[C@@H](C)C(=O)N[C@@H](CCCCN)C(=O)N[C@@H](CCCCN)C(=O)N[C@@H](CCCNC(=N)N)C(=O)N[C@H](C(=O)N[C@@H](CC(C)C)C(=O)N[C@@H](CCCNC(=N)N)C(=O)N[C@@H](CCCCN)C(=O)N[C@@H](CC(N)=O)C(=O)N[C@@H](CC(=O)O)C(=O)N[C@@H](CCCNC(=N)N)C(=O)N[C@@H](CCCCN)C(=O)N[C@@H](CCCCN)C(=O)N[C@@H](CCCNC(=N)N)C(N)=O)[C@@H](C)O)[C@@H](C)O)[C@@H](C)CC)C(C)C [Sample 3, reference compound] (H-MRIFAVFIFMTYWHLLNAKKRTLRKNDRKKR-NH2; N-terminus assumed) | 105.4 | 120.6 | 87.3 | 81.7 | 89.3 | 83.7 | 100.9 | 87.5 | 67.9 | 56.7 | 106.3 | 87.7 | – | – | – | – | – | – | –
CC[C@H](C)[C@H](NC(=O)[C@H](CCC(N)=O)NC(=O)[C@@H](N)CCSC)C(=O)N1CCC[C@H]1C(=O)N[C@@H](CCC(N)=O)C(=O)N[C@@H](C)C(=O)N1CCC[C@H]1C(=O)N[C@@H](Cc1c[nH]c2ccccc12)C(=O)N1CCC[C@H]1C(=O)N[C@H](C(=O)N[C@H](C(=O)N[C@@H](Cc1c[nH]c2ccccc12)C(=O)N[C@@H](C)C(=O)N[C@H](C(=O)N[C@@H](CC(C)C)C(=O)N[C@@H](CCC(N)=O)C(=O)N[C@@H](CC(C)C)C(=O)NCC(=O)N[C@@H](Cc1c[nH]c2ccccc12)C(=O)N[C@@H](CCCNC(=N)N)C(=O)N[C@@H](CCCNC(=N)N)C(=O)N[C@@H](CCCCN)C(=O)N[C@@H](CCCCN)C(=O)N[C@@H](CCCNC(=N)N)C(=O)N[C@@H](CCCNC(=N)N)C(=O)N[C@@H](CCC(N)=O)C(=O)N[C@@H](CCCNC(=N)N)C(=O)N[C@@H](CCCNC(=N)N)C(=O)N[C@@H](CCCNC(=N)N)C(N)=O)C(C)C)C(C)C)C(C)C [Sample 2] (H-MQIPQAPWPVVWAVLQLGWRRKKRRQRRR-NH2; N-terminus assumed) | – | – | – | – | – | – | – | – | – | – | – | – | excellent antitumor activity | 52.4 | 9.1 | 50.4 | 3.6 | 62.9 | 4.9
CC[C@H](C)[C@H](NC(=O)[C@H](CCC(N)=O)NC(=O)[C@@H](N)CCSC)C(=O)N1CCC[C@H]1C(=O)N[C@@H](CCC(N)=O)C(=O)N[C@@H](C)C(=O)N1CCC[C@H]1C(=O)N[C@@H](Cc1c[nH]c2ccccc12)C(=O)N1CCC[C@H]1C(=O)N[C@H](C(=O)N[C@H](C(=O)N[C@@H](Cc1c[nH]c2ccccc12)C(=O)N[C@@H](C)C(=O)N[C@H](C(=O)N[C@@H](CC(C)C)C(=O)N[C@@H](CCC(N)=O)C(=O)N[C@@H](CC(C)C)C(=O)NCC(=O)N[C@@H](Cc1c[nH]c2ccccc12)C(=O)N[C@@H](CCCNC(=N)N)C(=O)N[C@@H](CCCCN)C(=O)N[C@@H](CCCCN)C(=O)N[C@@H](CCCNC(=N)N)C(=O)N[C@H](C(=O)N[C@@H](CC(C)C)C(=O)N[C@@H](CCCNC(=N)N)C(=O)N[C@@H](CCCCN)C(=O)N[C@@H](CC(N)=O)C(=O)N[C@@H](CC(=O)O)C(=O)N[C@@H](CCCNC(=N)N)C(=O)N[C@@H](CCCCN)C(=O)N[C@@H](CCCCN)C(=O)N[C@@H](CCCNC(=N)N)C(N)=O)[C@@H](C)O)C(C)C)C(C)C)C(C)C [Sample 1] (H-MQIPQAPWPVVWAVLQLGWRKKRTLRKNDRKKR-NH2; N-terminus assumed) | 49.8 | 11.8 | 97.4 | 62.3 | 63.1 | 9.9 | 50.4 | 6.7 | 2.5 | 0.5 | 59.6 | 6.8 | excellent antitumor activity | – | – | – | – | – | –
